Test results: ChEMBL document CHEMBL5528082 (J Med Chem, 2024)
Values after ≈ are worked out from the molar mass of the structure shown.

Legend:
Staphylococcus aureus [1] = assay: Antibacterial activity against TMP-resistant Staphylococcus aureus BHKS 227 incubated for 24 hrs by CLSI based broth microdilution assay; type: functional
Staphylococcus aureus [2] = assay: Antibacterial activity against Staphylococcus aureus ATCC 25923 incubated for 24 hrs by CLSI based broth microdilution assay; type: functional
[3] = system: Dihydrofolate reductase (Staphylococcus aureus); settings: dose 100.0 nM
[4] = Cytotoxicity against human NCM460 cells assessed as inhibition rate of cell growth at 100 uM incubated for 24 hrs by CCK8 assay relative to control; type: toxicity, cell-based
[5] = Cytotoxicity against HEK293 cells assessed as inhibition rate of cell growth at 100 uM incubated for 24 hrs by CCK8 assay relative to control; type: toxicity, cell-based; settings: human
Staphylococcus aureus [6] = assay: Antibacterial activity against Staphylococcus aureus USA 300 incubated for 24 hrs by CLSI based broth microdilution assay; type: functional
Staphylococcus aureus [7] = assay: Antibacterial activity against TMP-resistant Staphylococcus aureus BHKS 721 incubated for 24 hrs by CLSI based broth microdilution assay; type: functional
Staphylococcus aureus [8] = assay: Antibacterial activity against TMP-resistant Staphylococcus aureus BHKS 723 incubated for 24 hrs by CLSI based broth microdilution assay; type: functional
Dihydrofolate reductase = Dihydrofolate reductase (Staphylococcus aureus, UniProt P0A017); assay: Inhibition of Staphylococcus aureus DHFR expressed in Escherichia coli BL21 (DE3) using DHF as substrate preincubated for 10 mins followed by substrate addition measured for 10 mins in presence of NADPH by spectrophotometry
Sequence of Dihydrofolate reductase (P0A017 whole entry): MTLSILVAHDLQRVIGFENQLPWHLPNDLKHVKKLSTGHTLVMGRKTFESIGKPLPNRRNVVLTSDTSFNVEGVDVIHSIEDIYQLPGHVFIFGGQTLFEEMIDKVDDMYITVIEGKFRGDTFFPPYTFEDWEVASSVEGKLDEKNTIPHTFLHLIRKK

| SMILES | MIC (Staphylococcus aureus [1]) [µg/mL] | MIC (Staphylococcus aureus [2]) [µg/mL] | inhibition [3] [%] | inhibition at 24 h, 100 µM [4] [%] | inhibition at 24 h, 100 µM [5] [%] | MIC (Staphylococcus aureus [6]) [µg/mL] | MIC (Staphylococcus aureus [7]) [µg/mL] | MIC (Staphylococcus aureus [8]) [µg/mL] | IC50 (Dihydrofolate reductase) [nM] |
| --- | --- | --- | --- | --- | --- | --- | --- | --- | --- |
| CC(C)c1cc(OCC2CCCC2)c(I)cc1Oc1cnc(N)nc1N | 2 (≈ 4.27 µM) | 0.125 (≈ 0.267 µM) | 76.4 | 35.2 | 64 | 0.125 (≈ 0.267 µM) | 8 (≈ 17.1 µM) | 4 (≈ 8.54 µM) | 10.2 |
| CCCOc1cc(C(C)C)c(Oc2cnc(N)nc2N)cc1I | 0.5 (≈ 1.17 µM) | 0.016 (≈ 0.0374 µM) | 43.8 | 66.7 | 47.4 | 0.016 (≈ 0.0374 µM) | > 32 | > 32 | 45 |
| COc1cc(C(C)C)c(Oc2cnc(N)nc2N)cc1-c1cc(F)cc(F)c1 | 4 (≈ 10.4 µM) | 1 (≈ 2.59 µM) | > 100 | 52.1 | 45.2 | 0.5 (≈ 1.29 µM) | 32 (≈ 82.8 µM) | 32 (≈ 82.8 µM) | 41.8 |
| COc1cc(C(C)C)c(Oc2cnc(N)nc2N)cc1-c1ccc(Cl)c(C(F)(F)F)c1 | 2 (≈ 4.42 µM) | 0.5 (≈ 1.1 µM) | 67.4 | 37.8 | 41 | 0.5 (≈ 1.1 µM) | 4 (≈ 8.83 µM) | 4 (≈ 8.83 µM) | 142 |
| COc1cc(C(C)C)c(Oc2cnc(N)nc2N)cc1-c1ccc(C(C)(C)C)cc1 | 4 (≈ 9.84 µM) | 0.5 (≈ 1.23 µM) | 54.3 | 65.6 | 20.7 | 0.5 (≈ 1.23 µM) | 4 (≈ 9.84 µM) | 4 (≈ 9.84 µM) | 37.9 |
| COc1cc(C(C)C)c(Oc2cnc(N)nc2N)cc1-c1ccc(C)cc1 | 2 (≈ 5.49 µM) | 0.5 (≈ 1.37 µM) | 9.88 | 55.5 | 2.04 | 0.5 (≈ 1.37 µM) | 16 (≈ 43.9 µM) | 16 (≈ 43.9 µM) | 38.7 |
| COc1ccc(Oc2cnc(N)nc2N)cc1-c1ccc(C(F)(F)F)cc1 | 4 (≈ 10.6 µM) | 0.031 (≈ 0.0824 µM) | > 100 | 68.3 | 42.3 | 0.016 (≈ 0.0425 µM) | 4 (≈ 10.6 µM) | 4 (≈ 10.6 µM) | 8.29 |
| CCCCOc1cc(C(C)C)c(Oc2cnc(N)nc2N)cc1I | 1 (≈ 2.26 µM) | 0.125 (≈ 0.283 µM) | 50.8 | 72.9 | 42.2 | 0.125 (≈ 0.283 µM) | 4 (≈ 9.04 µM) | 8 (≈ 18.1 µM) | 36.7 |
| COc1ccc(Oc2cnc(N)nc2N)cc1-c1ccc(OC(F)(F)F)cc1 | 2 (≈ 5.1 µM) | 0.002 (≈ 0.0051 µM) | 51.1 | 69.9 | 39.4 | 0.002 (≈ 0.0051 µM) | 4 (≈ 10.2 µM) | 4 (≈ 10.2 µM) | 15.9 |
| COc1cc(C(C)C)c(Oc2cnc(N)nc2N)cc1-c1ccc(C(=O)O)cc1 | < 0.25 | 0.063 (≈ 0.16 µM) | 45.1 | 6.53 | 29.9 | 0.063 (≈ 0.16 µM) | 2 (≈ 5.07 µM) | 2 (≈ 5.07 µM) | 4.44 |
| COc1cc(C(C)C)c(Oc2cnc(N)nc2N)cc1-c1cc(Cl)cc(Cl)c1 | 1 (≈ 2.38 µM) | 0.125 (≈ 0.298 µM) | 78.6 | 66.2 | 39.7 | 0.125 (≈ 0.298 µM) | 4 (≈ 9.54 µM) | 4 (≈ 9.54 µM) | 15.4 |
| CCCCCOc1cc(C(C)C)c(Oc2cnc(N)nc2N)cc1I | 2 (≈ 4.38 µM) | 0.125 (≈ 0.274 µM) | 45.8 | 41.5 | 64.9 | 0.125 (≈ 0.274 µM) | 4 (≈ 8.77 µM) | 4 (≈ 8.77 µM) | 8.36 |
| COc1cc(C(C)C)c(Oc2cnc(N)nc2N)cc1-c1ccc(F)cc1 | 1 (≈ 2.71 µM) | 0.25 (≈ 0.679 µM) | 27.2 | 60.3 | 46.9 | 0.25 (≈ 0.679 µM) | 16 (≈ 43.4 µM) | 16 (≈ 43.4 µM) | 69.5 |
| COc1cc(C(C)C)c(Oc2cnc(N)nc2N)cc1-c1ccc2c(c1)OCO2 | 2 (≈ 5.07 µM) | 0.5 (≈ 1.27 µM) | > 100 | 62.3 | 26.8 | 0.25 (≈ 0.634 µM) | 32 (≈ 81.1 µM) | 16 (≈ 40.6 µM) | 34.8 |
| COc1cc(C(C)C)c(Oc2cnc(N)nc2N)cc1-c1ccc2ccccc2c1 | 1 (≈ 2.5 µM) | 0.5 (≈ 1.25 µM) | 80.8 | 67.6 | 13.5 | 0.25 (≈ 0.624 µM) | > 32 | > 32 | 148 |
| COc1cc(C(C)C)c(Oc2cnc(N)nc2N)cc1C1CC1 | 4 (≈ 12.7 µM) | 1 (≈ 3.18 µM) | 35.3 | 4.06 | 0.06 | 0.5 (≈ 1.59 µM) | 16 (≈ 50.9 µM) | 32 (≈ 102 µM) | 27.8 |
| COc1cc(C(C)C)c(Oc2cnc(N)nc2N)cc1CC(C)C | 4 (≈ 12.1 µM) | 0.5 (≈ 1.51 µM) | > 100 | 67.4 | 57.8 | 0.5 (≈ 1.51 µM) | 16 (≈ 48.4 µM) | 16 (≈ 48.4 µM) | 24.2 |
| COc1cc(C(C)C)c(Oc2cnc(N)nc2N)cc1-c1ccc(Cl)cc1 | 1 (≈ 2.6 µM) | 0.25 (≈ 0.65 µM) | 94.3 | 69.1 | 16.4 | 0.25 (≈ 0.65 µM) | 16 (≈ 41.6 µM) | 16 (≈ 41.6 µM) | 66.6 |
| COc1cc(C(C)C)c(Oc2cnc(N)nc2N)cc1-c1cccc(C(F)(F)F)c1 | 4 (≈ 9.56 µM) | 1 (≈ 2.39 µM) | 82.9 | 74.6 | 51.5 | 1 (≈ 2.39 µM) | 16 (≈ 38.2 µM) | 16 (≈ 38.2 µM) | 239 |
| COc1cc(C(C)C)c(Oc2cnc(N)nc2N)cc1-c1ccc(OC(F)(F)F)cc1 | 1 (≈ 2.3 µM) | 0.25 (≈ 0.575 µM) | > 100 | 63.6 | 43.5 | 0.25 (≈ 0.575 µM) | 8 (≈ 18.4 µM) | 8 (≈ 18.4 µM) | 19.1 |
| CC(C)c1cc(OCC2CCC2)c(I)cc1Oc1cnc(N)nc1N | 1 (≈ 2.2 µM) | 0.125 (≈ 0.275 µM) | 61.3 | 13.2 | 57.9 | 0.125 (≈ 0.275 µM) | 4 (≈ 8.8 µM) | 4 (≈ 8.8 µM) | 7.69 |
| COc1cc(C(C)C)c(Oc2cnc(N)nc2N)cc1-c1ccc(C(F)(F)F)cc1 | 2 (≈ 4.78 µM) | 0.5 (≈ 1.19 µM) | 68.1 | 65 | 27.4 | 0.5 (≈ 1.19 µM) | 16 (≈ 38.2 µM) | 16 (≈ 38.2 µM) | 60.2 |
